Results on 28 molecules are retold here after patent US12612368B2 (Remedy Plan, Inc., priority 2019, dated 2026).

One assay concerns MV-4-11 cells. In words: Cell viability in MV-4-11 cells (CellTiter Glo2). In kind it is cell-based. The note with it: Homo sapiens, MV4-11, 96 h, 8-point dose response, 4 days, CellTiter Glo2 (Table E2), read-out: MV-4-11 Cell Viability, MV-4-11 IC50.
In another assay the target is T1, NAMPT (Homo sapiens, UniProt P43490).
T1 construct: purchased Abcam ab221819
Kind of assay: NAMPT Activity Assay (Abcam #ab221819). Type of assay: biochemical. The settings on record: purified NAMPT, two-step reaction, OD450 nm; percent inhibition vs no drug; compound concentration not stated.

T1 sequence (P43490 whole entry): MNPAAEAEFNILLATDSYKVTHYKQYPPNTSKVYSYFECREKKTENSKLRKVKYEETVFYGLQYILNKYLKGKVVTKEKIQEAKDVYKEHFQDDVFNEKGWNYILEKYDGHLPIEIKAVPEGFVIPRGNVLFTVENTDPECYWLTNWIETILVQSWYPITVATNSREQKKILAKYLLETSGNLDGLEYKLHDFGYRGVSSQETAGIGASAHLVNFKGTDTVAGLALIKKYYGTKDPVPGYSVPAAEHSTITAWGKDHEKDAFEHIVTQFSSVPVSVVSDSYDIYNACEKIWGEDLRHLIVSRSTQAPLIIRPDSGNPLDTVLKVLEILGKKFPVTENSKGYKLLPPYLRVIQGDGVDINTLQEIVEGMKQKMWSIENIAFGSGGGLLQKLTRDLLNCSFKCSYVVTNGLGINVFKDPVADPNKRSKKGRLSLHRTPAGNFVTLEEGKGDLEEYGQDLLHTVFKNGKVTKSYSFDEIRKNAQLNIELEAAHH
Protocol for MV-4-11 cells: Approximately 10,000 MV-4-11 cells per well of a 96-well plate were treated with DMSO (no drug control) or each compound in Tables E1 and E2 in an 8-point dose response for 4 days, Cell viability was measured using CellTiter Glo2. The ICse of each compound was determined using CDD Vault.
Protocol for NAMPT: The NAMPT Activity Assay (Abcam #ab221819) was performed following manufacturers two-step reaction protocol. Briefly, compounds were added to a clear 96-well plate using the HP D300e Digital Dispenser. Purified NAMPT was added to all wells except the No NAMPT controls. Reaction Mix #1 was added to each well and the plate was incubated at 30*C for 1 hr followed by the addition of Reaction Mix #2. Absorbance was measured at OD450 nm using a multimode plate reader. Readings were recorded for 5 minutes and percent inhibition was calculated using: (1-(OD450 nm compound/OD450 nm no drug))*100.

On to `CCCN(C(C)=O)c1ccc(-c2ccc(C(=O)NCc3cccnc3)cn2)cc1Cl` [Compound I-606, 6-[4-[Acetyl(propyl)amino]-3-chloro-phenyl]-N-(3-pyridylmethyl)pyridine-3-carboxamide], for which the IC50 in the assay with MV-4-11 cells was 0.0211 µM. For the same molecule, the “NAMPT Inhibition Code” value at NAMPT is on record as “C (C = ≥66% inhibition)”.
Take `CC(=O)N(CC(F)F)c1ccc(-c2ccc(C(=O)NCc3cccnc3)cn2)cc1C` [Compound I-608, 6-[4-[Acetyl(2,2-difluoroethyl)amino]-3-methyl-phenyl]-N-(3-pyridylmethyl)pyridine-3-carboxamide]: in the assay with MV-4-11 cells, the IC50 amounted to 0.22 µM. The “NAMPT Inhibition Code” value at NAMPT was “B (B = ≥33 to <66% inhibition)”.
For the molecule `CC(=O)N(CC1CC1)c1ccc(-c2ccc(C(=O)NCc3cccnc3)cn2)cc1C` [Compound I-609, 6-[4-[Acetyl(cyclopropylmethyl)amino]-3-methyl-phenyl]-N-(3-pyridylmethyl)pyridine-3-carboxamide], the IC50 in the assay on MV-4-11 cells was 0.0135 µM. In addition, the “NAMPT Inhibition Code” value on NAMPT is recorded as “C (C = ≥66% inhibition)”.
Turning to `CC(=O)N(CC1COC1)c1ccc(-c2ccc(C(=O)NCc3cccnc3)cn2)cc1C` [Compound I-610, 6-[4-[Acetyl(oxetan-3-ylmethyl)amino]-3-methyl-phenyl]-N-(3-pyridylmethyl)pyridine-3-carboxamide], in the assay with MV-4-11 cells, the IC50 stood at 0.037 µM. The “NAMPT Inhibition Code” value on NAMPT was “B (B = ≥33 to <66% inhibition)”.
For the molecule `CC(C)N(C(=O)C(F)F)c1ccc(-c2ccc(C(=O)NCc3cccnc3)cn2)cc1Cl` [Compound I-611, 6-[3-chloro-4-[(2,2-difluoroacetyl)-isopropyl-amino]phenyl]-N-(3-pyridylmethyl)pyridine-3-carboxamide], in the assay on MV-4-11 cells, the IC50 was found to be 0.00301 µM. Also, on NAMPT, the “NAMPT Inhibition Code” value is listed as “C (C = ≥66% inhibition)”.
`CC(=O)N(CC(F)F)c1ccc(-c2ccc(C(=O)NCc3cccnc3)cn2)cc1Cl` [Compound I-619, 6-[4-[Acetyl(2,2-difluoroethyl)amino]-3-chloro-phenyl]-N-(3-pyridylmethyl)pyridine-3-carboxamide]: in the assay on MV-4-11 cells, the IC50 stood at 0.0672 µM. Moreover, the “NAMPT Inhibition Code” value on NAMPT is reported as “C (C = ≥66% inhibition)”.
On the same counts, the results for `CC(=O)N(CC1COC1)c1ccc(-c2ccc(C(=O)NCc3cccnc3)cn2)cc1Cl` [Compound I-620, 6-[4-[Acetyl(oxetan-3-ylmethyl)amino]-3-chloro-phenyl]-N-(3-pyridylmethyl)pyridine-3-carboxamide] are 0.00811 µM and “C (C = ≥66% inhibition)”.
Consider `CC(=O)N(c1ccc(-c2ccc(C(=O)NCc3cccnc3)cc2)cc1C)C(C)C` [Compound I-624, 4-[4-[Acetyl(isopropyl)amino]-3-methyl-phenyl]-N-(3-pyridylmethyl)benzamide], for which the 50% inhibitory concentration (IC50) in the assay on MV-4-11 cells came out at 0.04 µM. The “NAMPT Inhibition Code” value on NAMPT is “B (B = ≥33 to <66% inhibition)”.
In the case of `CC(=O)N(c1ccc(-c2ccc(C(=O)NCc3cccnc3)cn2)cc1F)C(C)C` [Compound I-626, 6-[4-[Acetyl(isopropyl)amino]-3-fluoro-phenyl]-N-(3-pyridylmethyl)pyridine-3-carboxamide], in the assay with MV-4-11 cells, the IC50 was determined as 0.0237 µM. Also, the “NAMPT Inhibition Code” value on NAMPT is “C (C = ≥66% inhibition)”.
The matching figures for `CC(=O)N(CCC(F)F)c1ccc(-c2ccc(C(=O)NCc3cccnc3)cn2)cc1` [Compound I-629, 6-[4-[Acetyl(3,3-difluoropropyl)amino]phenyl]-N-(3-pyridylmethyl)pyridine-3-carboxamide]: 0.358 µM and “B (B = ≥33 to <66% inhibition)”.
The matching figures for `CC(=O)N(c1ccc(-c2ccc(C(=O)NCc3cccnc3)cc2)cc1F)C(C)C` [Compound I-630, 4-[4-[Acetyl(isopropyl)amino]-3-fluoro-phenyl]-N-(3-pyridylmethyl)benzamide]: 0.137 µM and “C (C = ≥66% inhibition)”.
As to `CC(=O)N(CC(F)F)c1ccc(-c2ccc(C(=O)NCc3cccnc3)cn2)cc1` [Compound I-631, 6-[4-[Acetyl(2,2-difluoroethyl)amino]phenyl]-N-(3-pyridylmethyl)pyridine-3-carboxamide], in the assay on MV-4-11 cells, the IC50 came to 1.58 µM. On NAMPT, the “NAMPT Inhibition Code” value is “B (B = ≥33 to <66% inhibition)”.
For `CC(=O)N(CCC(F)F)c1ccc(-c2ccc(C(=O)NCc3cccnc3)cn2)cc1C` [Compound I-639, 6-[4-[Acetyl(3,3-difluoropropyl)amino]-3-methyl-phenyl]-N-(3-pyridylmethyl)pyridine-3-carboxamide], in the assay with MV-4-11 cells, the IC50 turned out to be 0.133 µM. Besides, on NAMPT, the “NAMPT Inhibition Code” value is listed as “B (B = ≥33 to <66% inhibition)”.
On the same counts, the results for `CCN(C(C)=O)c1ccc(-c2ccc(C(=O)NCc3cccnc3)cn2)cc1Cl` [Compound I-652, 6-[4-[Acetyl(ethyl)amino]-3-chloro-phenyl]-N-(3-pyridylmethyl)pyridine-3-carboxamide] are 0.0924 µM and “C (C = ≥66% inhibition)”.
`CC(=O)N(C)c1ccc(-c2ccc(C(=O)NCc3cccnc3)cn2)cc1C(F)(F)F` [Compound I-658, 6-[4-[Acetyl(methyl)amino]-3-(trifluoromethyl)phenyl]-N-(3-pyridylmethyl)pyridine-3-carboxamide]: the IC50 in the assay on MV-4-11 cells came to 0.15 µM. The “NAMPT Inhibition Code” value at NAMPT was “B (B = ≥33 to <66% inhibition)”.
The matching figures for `COC(=O)c1cc(-c2ccc(C(=O)NCc3cccnc3)cn2)ccc1N(C)C(C)=O` [Compound I-662, Methyl 2-[acetyl(methyl)amino]-5-[5-(3-pyridylmethylcarbamoyl)-2-pyridyl]benzoate]: 0.036 µM and “C (C = ≥66% inhibition)”.
Regarding `CC(=O)N(C)c1ccc(-c2ccc(C(=O)NCc3cccnc3)cn2)cc1C#N` [Compound I-663, 6-[4-[Acetyl(methyl)amino]-3-cyano-phenyl]-N-(3-pyridylmethyl)pyridine-3-carboxamide], the IC50 in the assay on MV-4-11 cells came out at 1.7 µM. Further, on NAMPT, the “NAMPT Inhibition Code” value is on record as “B (B = ≥33 to <66% inhibition)”.
On the same counts, the results for `CC(=O)N(CC1CC1)c1ccc(-c2ccc(C(=O)NCc3ccnc(N)c3)cn2)cc1Cl` [Compound I-674, 6-[4-[Acetyl(cyclopropylmethyl)amino]-3-chloro-phenyl]-N-[(2-amino-4-pyridyl)methyl]pyridine-3-carboxamide] are 0.35 µM and “B (B = ≥33 to <66% inhibition)”.
As to `CC(=O)N(CC1CC1)c1ccc(-c2ccc(C(=O)NCc3ccncc3)cn2)cc1Cl` [Compound I-676, 6-[4-[Acetyl(cyclopropylmethyl)amino]-3-chloro-phenyl]-N-(4-pyridylmethyl)pyridine-3-carboxamide], in the assay on MV-4-11 cells, the IC50 is over 0.997 µM. Further, the “NAMPT Inhibition Code” value on NAMPT is on record as “A (A = <33% inhibition)”.
The matching figures for `CC(=O)N(CC1CC1)c1ccc(-c2ccc(C(=O)NCc3ccc(N)nc3)cn2)cc1Cl` [Compound I-677, 6-[4-[Acetyl(cyclopropylmethyl)amino]-3-chloro-phenyl]-N-[(6-amino-3-pyridyl)methyl]pyridine-3-carboxamide]: 0.00291 µM and “C (C = ≥66% inhibition)”.
With `CC(=O)N(CC1CC1)c1ccc(-c2ccc(C(=O)NCc3ccc4nccn4c3)cn2)cc1Cl` [Compound I-679, 6-[4-[Acetyl(cyclopropylmethyl)amino]-3-chloro-phenyl]-N-(imidazo[1,2-a]pyridin-6-ylmethyl)pyridine-3-carboxamide], the IC50 in the assay with MV-4-11 cells came to 0.000566 µM. Also, at NAMPT, the “NAMPT Inhibition Code” value was “C (C = ≥66% inhibition)”.
On the same counts, the results for `CC(=O)N(CC1CC1)c1ccc(-c2ccc(C(=O)Nc3ccc4nccn4c3)cn2)cc1Cl` [Compound I-681, 6-[4-[Acetyl(cyclopropylmethyl)amino]-3-chloro-phenyl]-N-imidazo[1,2-a]pyridin-6-yl-pyridine-3-carboxamide] are 0.00131 µM and “C (C = ≥66% inhibition)”.
The matching figures for `CC(=O)N(CC1CC1)c1ccc(-c2ccc(C(=O)Nc3cccnc3)cn2)cc1Cl` [Compound I-683, 6-[4-[Acetyl(cyclopropylmethyl)amino]-3-chloro-phenyl]-N-(3-pyridyl)pyridine-3-carboxamide]: over 0.997 µM and “C (C = ≥66% inhibition)”.
On the same counts, the results for `CC(=O)N(CC1CC1)c1ccc(-c2ccc(C(=O)Nc3ccncc3)cn2)cc1Cl` [Compound I-684, 6-[4-[Acetyl(cyclopropylmethyl)amino]-3-chloro-phenyl]-N-(4-pyridyl)pyridine-3-carboxamide] are 0.341 µM and “A (A = <33% inhibition)”.
In the case of `CC(=O)N(CC1CC1)c1ccc(-c2ccc(C(=O)NCc3cccnc3F)cn2)cc1Cl` [Compound I-685, 6-[4-[Acetyl(cyclopropylmethyl)amino]-3-chloro-phenyl]-N-[(2-fluoro-3-pyridyl)methyl]pyridine-3-carboxamide], in the assay on MV-4-11 cells, the IC50 came out at 0.34 µM. For the same molecule, at NAMPT, the “NAMPT Inhibition Code” value is “C (C = ≥66% inhibition)”.
`CC(=O)N(CC1CC1)c1ccc(-c2ccc(C(=O)Nc3ccn4ccnc4c3)cn2)cc1Cl` [Compound I-687, 6-[4-[Acetyl(cyclopropylmethyl)amino]-3-chloro-phenyl]-N-imidazo[1,2-a]pyridin-7-yl-pyridine-3-carboxamide]: the IC50 in the assay on MV-4-11 cells is 0.261 µM. The “NAMPT Inhibition Code” value on NAMPT was “A (A = <33% inhibition)”.
For `CC(=O)N(CC1CC1)c1ccc(-c2ccc(C(=O)NCc3ccc(Cl)nc3)cn2)cc1Cl` [Compound I-689, 6-[4-[Acetyl(cyclopropylmethyl)amino]-3-chloro-phenyl]-N-[(6-chloro-3-pyridyl)methyl]pyridine-3-carboxamide], in the assay with MV-4-11 cells, the IC50 worked out at 0.0328 µM. The “NAMPT Inhibition Code” value at NAMPT is listed as “C (C = ≥66% inhibition)”.
On the same counts, the results for `CC(=O)N(CC1CC1)c1ccc(-c2ccc(C(=O)NCc3cncc(F)c3)cn2)cc1Cl` [Compound I-690, 6-[4-[Acetyl(cyclopropylmethyl)amino]-3-chloro-phenyl]-N-[(5-fluoro-3-pyridyl)methyl]pyridine-3-carboxamide] are 0.336 µM and “C (C = ≥66% inhibition)”.

The term IC50 denotes the midpoint of a concentration-inhibition curve.
